Test results: ChEMBL document CHEMBL1157986, “Vismiaphenones D-G, new prenylated benzophenones from Vismia cayennensis” (J Nat Prod, 1999)
≈ marks a conversion by molar mass, not a printed value.

How the values were obtained:
[1] = test system: Human immunodeficiency virus; assay: Antiviral activity against HIV; type: functional, organism-based; settings: Human immunodeficiency virus 1
[2] = test system: CEM-SS; assay: Cytotoxicity against human CEM-SS cells; type: functional, cell-based

COc1c(CC=C(C)C)c(O)c(C(=O)c2ccc(O)cc2)c(O)c1CC=C(C)C [VISMIAPHENONE D] was tested, and the EC50 [1] was 11 µg/mL (≈ 27.7 µM) and the IC50 [2] was 30 µg/mL (≈ 75.7 µM).
